Test results as given in PubChem BioAssay (NCI).
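Assay format: 96-well plates, 48-hour exposure. Here, GI50 denotes the concentration required for 50% inhibition of growth. The concentration for full growth arrest is given as TGI.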

How the values were obtained:
Test in all cases: NCI tumour cell line growth inhibition, 48 h
[1] = system: MDA-N
[2] = system: DMS 114 small cell lung
[3] = system: DMS 273 small cell lung
[4] = system: HOP-18 NSCLC
[5] = system: KM20L2 colon
[6] = system: LXFL 529 NSCLC
[7] = system: M19-MEL melanoma
[8] = system: XF 498 CNS
[9] = system: RXF-631 renal
[10] = system: P388 leukemia
[11] = system: P388/ADR leukemia
[12] = system: SN12K1 renal

| Structure (SMILES) | TGI [1] | TGI [2] | TGI [3] | TGI [4] | TGI [5] | TGI [6] | TGI [7] | TGI [8] | TGI [9] | further results |
| --- | --- | --- | --- | --- | --- | --- | --- | --- | --- | --- |
| CCOC1NC(=O)Oc2ccccc21 (centres undefined) | > 100 µM | – | – | – | – | – | – | – | – | – |
| COC(=O)C1Cc2c([nH]c3ccccc23)C=N1 (centres undefined) | – | > 100 µM | > 100 µM | > 100 µM | > 100 µM | > 100 µM | > 100 µM | – | – | – |
| Cc1cccc(C)c1NC(=O)C(=O)C1C(=O)N(c2ccccc2)N=C1N (centres undefined) | – | > 100 µM | > 100 µM | > 100 µM | > 100 µM | > 100 µM | > 100 µM | – | – | – |
| O=C(CC1C(=O)Nc2ccccc2S1=O)Nc1cccc(Cl)c1 (centres undefined) | 56.1 µM | > 100 µM | – | > 100 µM | > 100 µM | > 100 µM | > 100 µM | > 100 µM | – | – |
| COc1ccc(Cc2ccccc2C(=O)O)c2ccccc12 | 74.4 µM | – | – | – | – | – | – | – | – | – |
| COc1nc2c(nc(N)n2C2OC(CO)C(O)C(O)C2O)c(=O)n1C (centres undefined) | – | > 100 µM | – | > 100 µM | > 100 µM | > 100 µM | > 100 µM | > 100 µM | > 100 µM | – |
| COC(=O)/C(C#N)=C1\N=NNN1CCCc1ccccc1 | – | > 100 µM | > 100 µM | > 100 µM | – | > 100 µM | > 100 µM | – | > 100 µM | – |
| CC(C)(C)NNc1c([N+](=O)[O-])cnn(-c2ccccc2)c1=O | – | – | 10.4 µM | 32 µM | 13.1 µM | 3.25 µM | 5.61 µM | 5.22 µM | – | – |
| Cc1ccccc1NC(=O)c1[nH]c(=S)nc(N)c1-c1ccccc1C | – | > 100 µM | > 100 µM | > 100 µM | > 100 µM | > 100 µM | > 100 µM | – | – | – |
| C[C@H](NC(=O)OC1C2C=CC(O)C1CC2)c1ccccc1 (some centres undefined) | – | > 100 µM | > 100 µM | > 100 µM | > 100 µM | > 100 µM | – | > 100 µM | – | – |
| O=C(OCCOCCOC(=O)c1c[nH]cc1-c1ccccc1)c1c[nH]cc1-c1ccccc1 | – | 32.5 µM | 30.6 µM | – | 46 µM | 69.2 µM | 34 µM | 34.4 µM | – | – |
| CCC(=O)O[C@@H]1C2C(OC(C)=O)C34COC(C)([C@@H]3C3C(C[C@]3(C)OC(C)=O)[C@@H](OC(=O)c3ccccc3)C4=O)[C@H](OC(C)=O)[C@@]2(OC(C)=O)C[C@@H]1C (some centres undefined) | – | 51.3 µM | > 100 µM | > 100 µM | > 100 µM | > 100 µM | > 100 µM | – | > 100 µM | – |
| Cc1ccc(S(=O)(=O)N2CCCCC2CCO)cc1 (centres undefined) | – | > 100 µM | > 100 µM | > 100 µM | > 100 µM | > 100 µM | > 100 µM | – | – | – |
| COc1ccccc1NC(=O)C1=C(C)NC(C)=C(C(=O)Nc2ccccc2OC)C1c1ccc(C(C)C)cc1 | – | – | > 100 µM | > 100 µM | > 100 µM | > 100 µM | > 100 µM | > 100 µM | > 100 µM | – |
| O=c1c2ccccc2nc(-c2ccc(Cl)cc2)n1O | > 100 µM | – | – | – | – | – | – | – | – | – |
| CCN(CCCl)CCNc1c2ccccc2nc2ccc(OC)cc12 | – | 2.35 µM | 2.02 µM | 8.02 µM | 3.45 µM | 1.87 µM | 2.24 µM | 2.43 µM | 4.4 µM | TGI [10]: 0.58 µM; TGI [11]: 2.29 µM; TGI [12]: 3.08 µM |
| O=Cc1ccc(C(F)(F)F)cc1.[C-]#[O+].[C-]#[O+].[C-]#[O+].[Cr] | 55.1 µM | – | – | – | – | – | – | – | – | GI50 [1]: 18 µM |

| Structure (SMILES) | TGI [1] | TGI [2] | TGI [3] | TGI [4] | TGI [5] | TGI [6] | TGI [7] | TGI [8] | TGI [9] | further results |
| --- | --- | --- | --- | --- | --- | --- | --- | --- | --- | --- |
| O=C1C(c2ccccc2)=C(c2ccccc2)C(c2ccccc2)/C1=C1\C(=O)C(c2ccccc2)=C(c2ccccc2)C1c1ccccc1 (centres undefined) | – | > 100 µM | > 100 µM | > 100 µM | > 100 µM | > 100 µM | > 100 µM | – | – | – |
| CC(CN(CP(=O)([O-])[O-])CP(=O)([O-])[O-])N(CP(=O)([O-])[O-])CP(=O)([O-])[O-].N[C@@H]1CCCC[C@@H]1N.[Pt+2] (centres undefined) | – | – | > 100 µM | > 100 µM | > 100 µM | > 100 µM | – | – | – | GI50 [3]: > 100 µM; GI50 [4]: > 100 µM; GI50 [5]: > 100 µM; GI50 [6]: > 100 µM |
| O=S1(=O)CSc2ccc3ccccc3c2-c2c1ccc1ccccc21 | – | > 100 µM | > 100 µM | > 100 µM | – | > 100 µM | > 100 µM | > 100 µM | > 100 µM | – |
| CC(=O)O[C@H]1CC[C@@]2(C)C(=CC[C@@H]3C2CC[C@]2(C)Nc4oncc4CC32)C1 (some centres undefined) | – | – | 73.5 µM | – | > 100 µM | 26.5 µM | > 100 µM | 84.4 µM | > 100 µM | – |
| NCCOc1ccccn1 | > 100 µM | – | – | – | – | – | – | – | – | – |
| Cc1cc2c(=O)cc(-c3ccc(Cl)cc3)oc2c(C(=O)O)c1C | – | > 100 µM | > 100 µM | > 100 µM | > 100 µM | > 100 µM | > 100 µM | > 100 µM | > 100 µM | – |
| CCCCOC(=O)N[C@H]1CCc2cc(OC)c(OC)c(OC)c2-c2ccc(SC)c(=O)cc21 | < 0.01 µM | < 0.01 µM | – | > 100 µM | < 0.01 µM | 29.5 µM | 65.7 µM | 2.55 µM | – | – |
| N#CC(C#N)=C1NC(=O)C(c2ccccc2)C(=O)N1 (centres undefined) | – | > 100 µM | > 100 µM | – | > 100 µM | > 100 µM | > 100 µM | > 100 µM | > 100 µM | – |
| CCOc1ccc(NC(=O)C2=C(C)NC(C)=C(C(=O)Nc3ccc(OCC)cc3)C2c2ccc([N+](=O)[O-])cc2)cc1 | – | > 100 µM | – | – | 56.3 µM | > 100 µM | > 100 µM | 70.7 µM | – | – |
| CC(C)(C)c1ccc(-c2nnc(SCc3ccc(Cl)cc3)n2-c2cccc(C(F)(F)F)c2)cc1 | > 100 µM | – | – | – | – | – | – | – | – | – |
| CC(=O)Nc1ccc(C(=O)N[C@@H]2C(=O)N3[C@@H]2SC(C)(C)[C@@H]3C(=O)O)cn1 | > 100 µM | – | – | – | – | – | – | – | – | – |
| Cn1cc(C(=O)C2CCCCC2)ccc1=O | – | > 100 µM | > 100 µM | – | > 100 µM | – | – | > 100 µM | > 100 µM | – |
| Cc1cc(Cl)ccc1N1C(=O)C(=O)C(c2nc3ccccc3s2)C(=O)C1=O | – | > 100 µM | > 100 µM | > 100 µM | > 100 µM | > 100 µM | – | > 100 µM | > 100 µM | – |
| CC(O)CN(CCN(CC(C)O)CC(C)O)CC(C)O.O=[N+]([O-])O.[Cu+2] (centres undefined) | > 100 µM | – | – | – | – | – | – | – | – | GI50 [1]: > 100 µM |
| C[Si](C)(C)/C(Br)=C\CCN1C(=O)CCC1O (centres undefined) | – | > 100 µM | > 100 µM | > 100 µM | > 100 µM | > 100 µM | > 100 µM | > 100 µM | – | – |
| O=C1c2cccnc2-c2nc(-c3ccc([N+](=O)[O-])cc3)cc3c2c1nc1ccccc13 | 3.22 µM | – | – | – | – | – | – | – | – | GI50 [1]: 1.75 µM |
| CC(C)(C)c1cc(C(O)(C(F)(F)F)C(F)(F)F)c2c(c1)C(C(F)(F)F)(C(F)(F)F)OC(c1ccccc1)(C(C)(C)C)N2 (centres undefined) | – | 9.8 µM | 13.6 µM | 6.81 µM | 21 µM | 12.5 µM | 13.8 µM | 6.24 µM | – | – |
